Reference: US7968526B2, “Antisense oligonucleotides directed to ribonucleotide reductase R2 and uses thereof in the treatment of cancer” (Lorus Therapeutics Inc., priority 2003, dated 2011)
“Also recorded” adds a separate entry of the source.

What was measured:
Assay type in all cases: in vivo, human cells in mice
[1] = system: PC-3 human prostatic cancer cells; test: PC-3 prostatic tumour xenograft in SCID mice, combination with mitoxantrone (1.4)
Procedure: (§1) After 52 days the mice were sacrificed and the tumours weighed. […] In both experiments, PC-3 human prostatic cancer cells (1×10^7 cells in 100 μl of PBS) were subcutaneously injected into the right flank of 6-7 weeks old male SCID mice. After the size of tumour reached an approximate volume of 50 mm^3, 14 days post tumour cell injection, SEQ ID NO: 1 was administered by bolus infusion into the tail vein every other day at 10 mg/kg 18 times (FIG. 4A) or 17 times (FIG. 4B), respectively. Control animals received saline alone for the same period. Antitumour effect of SEQ ID NO:1 was further compared to that of mitoxantrone (novantrone) alone or in combination. Mitoxantrone was administered intravenously once at the beginning of the treatments at a dose of 2 mg/kg (FIG. 4A) or once a week for four weeks at a reduced dose of 0.8 mg/kg (FIG. 4B). All treatments were stopped at day 50 (FIG. 4A) or 48 (FIG. 4B), respectively. A day after the last treatment, tumours were excised from the animals and their weights were measured. […] In both experiments, DU145 human prostatic cancer cells (1×10^7 cells in 100 μl of PBS) were subcutaneously injected into the right flank of 6-7 weeks old male SCID mice. After the size of tumour reached an approximate volume of 50 mm^3, 13 (FIG. 5A) or 11 (FIG. 5B) days post tumour cell injection, SEQ ID NO:1 was administered by bolus infusion into the tail vein every other day at 10 mg/kg 15 times (FIG. 5A) or 14 times (FIG. 5B), respectively. Control animals received saline alone for the same period. Antitumour effect of SEQ ID NO:1 was further compared to that of mitoxantrone (novantrone) alone or in combination. Mitoxantrone was administered intravenously once at the beginning of the treatments at a dose of 2 mg/kg (FIG. 5A) or once a week for four weeks at a reduced dose of 0.8 mg/kg (FIG. 5B). All treatments were stopped at day 42 (FIG. 5A) or 38 (FIG. 5B), respectively. A day after the last treatment, tumours were excised from the animals and their weights were measured.

[2] = system: DU145 human prostatic cancer cells; test: DU145 prostatic tumour xenograft in SCID mice, combination with mitoxantrone (1.5); details: for Tumour weight as % of saline control: DU145 (prostatic), SCID, SEQ ID NO:1 10 mg/kg i.v. every other day, mitoxantrone i.v.
Procedure: as §1

[3] = system: BxPC-3 human pancreatic carcinoma cells; test: BxPC-3 gemcitabine resistant pancreatic carcinoma xenograft in CD-1 nude mice; details: Gemcitabine 100 mg/kg i.v. every three days
Procedure: BxPC-3 is a gemcitabine resistant call line. […] Gemcitabine was administered intravenously every three days at a dose of 100 mg/kg. Antitumour activities were estimated by the inhibition of tumour volume, which was measured with caliper. Each point represents mean tumour volume calculated from 10 animals per experimental group. […] Hela S3 is a hydroxyurea resistant cell line. […] Hydroxyurea was administered intraperitoneally every day at a dose of 250 mg/kg for 10 days. Cisplatin was administered intravenously once a week for three weeks at a dose of 4 mg/kg. Antitumour activities were estimated by the inhibition of tumour volume, which was measured with caliper. Each point represents mean tumour volume calculated from 10 animals per experimental group. […] Cisplatin was administered intravenously once a week for three weeks at a dose of 4 mg/kg. Taxol was administered intravenously once a week for three weeks at a dose of 10 mg/kg. Antitumour activities were estimated by the inhibition of tumour volume, which was measured with caliper. Each point represents mean tumour volume calculated from 10 animals per experimental group. […] Taxol was administered i.p. once a week at a dose of 10 mg/kg. Antitumour activities were estimated by the inhibition of tumour volume (FIG. 12A), which was measured with calipers. Each point represents mean tumour volume calculated from 10 animals per experimental group. Animals were sacrificed and tumour weights taken at the end of the study (FIG. 12C). […] Cisplatin was administered intravenously once a week for four weeks at a dose of 4 mg/kg. Taxol was administered intravenously once a week for four weeks at a dose of 20 mg/kg. Antitumour activities were estimated by the inhibition of tumour volume, which was measured with caliper. Each point represents mean tumour volume calculated from 9-10 animals per experimental group. […] Cisplatin was administered intravenously once a week for four weeks at a dose of 4 mg/kg. Antitumour activities were estimated by the inhibition of tumour volume, which was measured with caliper. Each point represents mean tumour volume calculated from 10 animals per experimental group. At the end of the study the animals were sacrificed and tumours weighed. […] Taxol was administered i.p. once a week at a dose of 10 mg/kg. Anti-tumour activity was estimated by the inhibition of tumour volume, which was measured with caliper. Each point represents mean tumour volume calculated from 10 animals per experimental group. […] Antitumour activities were estimated by the inhibition of tumour volume, which was measured with caliper. Each point represents mean tumour volume calculated from 10 animals per experimental group. Tumour weights were measured after animals were sacrificed at the end of the treatment. […]

[4] = system: A498 human kidney cancer cells; test: A498 kidney tumour xenograft in SCID mice, controls and chemotherapeutics (Example 7); details: oligonucleotides 10 mg/kg/2 days i.v., 5-FU 13 mg/kg/day×5, vinblastine 1 mg/kg/week, gemcitabine 100 mg/kg/week
Excerpt: CD-1 athymic female nude mice, BALB/c nu/nu nude mice, SCID, and SCID beige mice were purchased from Charles River Laboratories (Montreal, Canada) and experiments were typically initiated when the mice were 6-7 weeks old. […] Each experimental group typically contained 10 mice. After the size of tumour reached a mean tumour volume of 50-100 mm^3, treatment was initiated. […] Anti-tumour activity was estimated by the measurement of tumour volume with a calliper at two-three day intervals. Tumour volume was calculated by a formula L×W×H/2, where L indicates length, W indicates width and H indicates height. Within 24 hours after the last treatment, the animals were sacrificed and tumour and body weights were measured. Results of statistical analyses of the data are presented as P values in the figure legends.
Three additional treatment groups received: 5-FU (13 mg/kg/day×5), vinblastine (1 mg/kg/week) and gemcitabine (100 mg/kg/week). […] Caliper measurements at 1-week intervals were used to calculate tumour volumes. Each point in FIG. 28C represents mean tumour volume calculated from 10 animals per experimental group (with the exception of SEQ ID NO: 1 which was 8 animals). […] After 54 days the mice were sacrificed and the A498 tumours weighed. Each bar represents the mean tumour weight and standard error calculated for each treatment group.

[5] = system: A2058 human melanoma cells; test: A2058 melanoma xenograft in CD-1 nude mice, combination with DTIC (1.6); details: A2058 (melanoma), CD-1; SEQ ID NO:1 10 mg/kg i.v. every other day; DTIC 80 mg/kg i.v. days 6-10
Procedure: After 52 days the mice were sacrificed and the tumours weighed. […] Mitoxantrone was administered intravenously once at the beginning of the treatments at a dose of 2 mg/kg (FIG. 4A) or once a week for four weeks at a reduced dose of 0.8 mg/kg (FIG. 4B). All treatments were stopped at day 50 (FIG. 4A) or 48 (FIG. 4B), respectively. […] Mitoxantrone was administered intravenously once at the beginning of the treatments at a dose of 2 mg/kg (FIG. 5A) or once a week for four weeks at a reduced dose of 0.8 mg/kg (FIG. 5B). All treatments were stopped at day 42 (FIG. 5A) or 38 (FIG. 5B), respectively. […] A2058 is a metastatic melanoma cell line. […] All treatments were stopped at day 24. […] Taxol was administered intravenously once a week at a dose of 10 mg/kg for three (FIG. 7A) or four weeks (FIG. 7C). Doxorubicin was administered intravenously once a week at a dose of 5 mg/kg for first three weeks (FIG. 7A) or for two weeks (FIG. 7C). All treatments were stopped at day 33 (FIG. 7A) or at day 26 (FIG. 7C), respectively. […] In FIG. 7C, antitumour activities were estimated by the inhibition of tumour volume, which was measured with calipers. Each point represents mean tumour volume calculated from 10 animals per experimental group. […] Taxol was administered intravenously once a week for first three weeks and intraperitoneally once a week for next two weeks at a dose of 10 mg/kg. Cisplatin was administered intravenously once a week for first three weeks and intraperitoneally once a week for next two weeks at a dose of 4 mg/kg. All treatments were stopped at day 40. Antitumour activities were estimated by the inhibition of tumour volume, which was measured with caliper. Each point represents mean tumour volume calculated from 9 animals per experimental group.

[6] = system: HT-29 human colon cancer cells; test: HT-29 colon tumour xenograft in nude mice, combination with CPT-11 (1.2); details: HT-29 (colon), CD-1; SEQ ID NO:1 10 mg/kg i.v. every other day; CPT-11 20 mg/kg i.p. days 7-12
Excerpt: All treatments were stopped at day 22. […] All treatments were stopped at day 32. […] All treatments were stopped at day 36.

[7] = system: LS513 multi-drug resistant colon carcinoma cells; test: LS513 multi-drug resistant colon carcinoma xenograft in SCID mice, combination with CPT-11 (2.8); details: LS513 (colon) multi-drug resistant (CPT-11 sensitive), SCID; SEQ ID NO:1 10 mg/kg i.v. every other day; CPT-11 20 mg/kg/day i.p. 5 days
Procedure: BxPC-3 is a gemcitabine resistant call line. […] Gemcitabine was administered intravenously every three days at a dose of 100 mg/kg. Antitumour activities were estimated by the inhibition of tumour volume, which was measured with caliper. Each point represents mean tumour volume calculated from 10 animals per experimental group. […] Hela S3 is a hydroxyurea resistant cell line. […] Hydroxyurea was administered intraperitoneally every day at a dose of 250 mg/kg for 10 days. Cisplatin was administered intravenously once a week for three weeks at a dose of 4 mg/kg. Antitumour activities were estimated by the inhibition of tumour volume, which was measured with caliper. Each point represents mean tumour volume calculated from 10 animals per experimental group. […] Cisplatin was administered intravenously once a week for three weeks at a dose of 4 mg/kg. Taxol was administered intravenously once a week for three weeks at a dose of 10 mg/kg. Antitumour activities were estimated by the inhibition of tumour volume, which was measured with caliper. Each point represents mean tumour volume calculated from 10 animals per experimental group. […] Taxol was administered i.p. once a week at a dose of 10 mg/kg. Antitumour activities were estimated by the inhibition of tumour volume (FIG. 12A), which was measured with calipers. Each point represents mean tumour volume calculated from 10 animals per experimental group. […] Antitumour activities were estimated by the inhibition of tumour volume, which was measured with caliper. Each point represents mean tumour volume calculated from 9-10 animals per experimental group. […] Antitumour activities were estimated by the inhibition of tumour volume, which was measured with caliper. Each point represents mean tumour volume calculated from 10 animals per experimental group. […] Anti-tumour activity was estimated by the inhibition of tumour volume, which was measured with caliper. Each point represents mean tumour volume calculated from 10 animals per experimental group. […] Antitumour activities were estimated by the inhibition of tumour volume, which was measured with caliper. […]

Structure (SMILES): O=C1c2c(O)ccc(O)c2C(=O)c2c(NCCNCCO)ccc(NCCNCCO)c21 [Novantrone, mitoxantrone]
- Tumour weight as % of saline control ([1]; PC-3 (prostatic), SCID, SEQ ID NO:1 10 mg/kg i.v. every other day, mitoxantrone (novantrone) i.v., table does not say which of two experiments): 57%
- Antitumour effect (tumour weight, FIG. 4B) ([1]; PC-3, SCID mice, SEQ ID NO:1 10 mg/kg i.v. every other day 17 times, mitoxantrone 0.8 mg/kg i.v. once a week for four weeks): significant delay of tumour growth
- Tumour weight as % of saline control ([2]; first of two printed values (two independent experiments)): 40%
- Tumour weight as % of saline control ([2]; second of two printed values (two independent experiments)): 60%
- Antitumour effect (tumour weight, FIG. 5B) ([2]; DU145, SCID mice, SEQ ID NO:1 10 mg/kg i.v. every other day 14 times, mitoxantrone 0.8 mg/kg i.v. once a week for four weeks): significant delay of tumour growth

Structure (SMILES): Nc1ccn([C@@H]2O[C@H](CO)[C@@H](O)C2(F)F)c(=O)n1 [Gemcitabine, reference compound]
- Tumour weight as % of saline control ([3]; BxPC-3 (pancreatic), Gemcitabine resistant, CD-1, SEQ ID NO:1 10 mg/kg i.v. every other day 17 times): 83%
- Antitumour effect (tumour volume, FIG. 9) ([3]; BxPC-3 gemcitabine resistant, CD-1 nude mice, SEQ ID NO:1 10 mg/kg i.v. every other day): ineffective against Gemcitabine-resistant tumour
- Effect on tumour growth (volume and weight) [4]: ineffective in stabilization of the tumours; also recorded: at best, a delay in the rate of tumour growth

Structure (SMILES): CN(C)/N=N/c1[nH]cnc1C(N)=O [DTIC, dacarbazine, reference compound]
- Tumour weight as % of saline control [5]: 68%

Structure (SMILES): CCc1c2c(nc3ccc(OC(=O)N4CCC(N5CCCCC5)CC4)cc13)-c1cc3c(c(=O)n1C2)COC(=O)[C@]3(O)CC [CPT-11, irinotecan, reference compound]
- Tumour weight as % of saline control [6]: 36%
- Tumour weight as % of saline control [7]: 47%
